Where two headings read alike, the source gives them in different places.
Key:
HDAC8 = target: T1, HDAC8 (Homo sapiens, UniProt Q9BY41); experiment: HDAC biochemical activity measurement (fluorescent substrate deacetylation); settings: 37° C. 30 minutes
T1 sequence (Q9BY41 1-377): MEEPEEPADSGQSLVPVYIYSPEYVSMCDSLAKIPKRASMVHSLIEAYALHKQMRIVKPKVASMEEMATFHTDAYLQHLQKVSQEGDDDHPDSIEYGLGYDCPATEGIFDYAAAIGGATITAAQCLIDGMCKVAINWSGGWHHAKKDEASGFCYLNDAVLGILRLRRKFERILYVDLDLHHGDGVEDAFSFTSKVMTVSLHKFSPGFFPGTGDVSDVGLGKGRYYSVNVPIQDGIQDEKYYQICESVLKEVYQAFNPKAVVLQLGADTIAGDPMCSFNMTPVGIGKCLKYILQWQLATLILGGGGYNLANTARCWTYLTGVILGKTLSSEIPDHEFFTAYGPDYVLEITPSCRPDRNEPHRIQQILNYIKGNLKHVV

HDAC3 = HDAC3 (Homo sapiens, UniProt O15379); experiment: as above;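 also: fluorogenic acetyl-lysine substrate (20 µM) deacetylated by HDAC3, then developer added for 15 min at room temperature, release of fluorophore read at excitation 360 nm, emission 460 nm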
Sequence of HDAC3 (O15379 whole entry, species assumed): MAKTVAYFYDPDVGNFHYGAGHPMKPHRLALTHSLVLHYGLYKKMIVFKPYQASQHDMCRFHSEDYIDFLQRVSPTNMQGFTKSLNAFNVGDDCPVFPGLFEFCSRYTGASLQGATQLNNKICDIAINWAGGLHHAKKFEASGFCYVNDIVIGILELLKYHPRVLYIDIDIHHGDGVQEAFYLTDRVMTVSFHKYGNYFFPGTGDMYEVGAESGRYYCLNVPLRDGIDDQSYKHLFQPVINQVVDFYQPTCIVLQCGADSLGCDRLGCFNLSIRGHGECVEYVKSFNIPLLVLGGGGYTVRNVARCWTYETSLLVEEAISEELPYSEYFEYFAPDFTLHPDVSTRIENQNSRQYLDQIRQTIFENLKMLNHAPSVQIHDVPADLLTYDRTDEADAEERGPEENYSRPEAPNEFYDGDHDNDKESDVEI
Sequence of HDAC3 (Q9Y618 395-489 partner limits assumed, species assumed): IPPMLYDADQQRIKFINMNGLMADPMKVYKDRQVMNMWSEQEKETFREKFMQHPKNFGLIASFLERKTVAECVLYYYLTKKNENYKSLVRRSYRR

HDAC1 = HDAC1 (Homo sapiens, UniProt Q13547); experiment: as above;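 also: fluorogenic acetyl-lysine substrate (20 µM) deacetylated by HDAC1, then developer releases fluorophore read at 360 nm excitation and 460 nm emission, inhibitor incubated 30 min at 37 °C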
Sequence of HDAC1 (Q13547 whole entry, species assumed): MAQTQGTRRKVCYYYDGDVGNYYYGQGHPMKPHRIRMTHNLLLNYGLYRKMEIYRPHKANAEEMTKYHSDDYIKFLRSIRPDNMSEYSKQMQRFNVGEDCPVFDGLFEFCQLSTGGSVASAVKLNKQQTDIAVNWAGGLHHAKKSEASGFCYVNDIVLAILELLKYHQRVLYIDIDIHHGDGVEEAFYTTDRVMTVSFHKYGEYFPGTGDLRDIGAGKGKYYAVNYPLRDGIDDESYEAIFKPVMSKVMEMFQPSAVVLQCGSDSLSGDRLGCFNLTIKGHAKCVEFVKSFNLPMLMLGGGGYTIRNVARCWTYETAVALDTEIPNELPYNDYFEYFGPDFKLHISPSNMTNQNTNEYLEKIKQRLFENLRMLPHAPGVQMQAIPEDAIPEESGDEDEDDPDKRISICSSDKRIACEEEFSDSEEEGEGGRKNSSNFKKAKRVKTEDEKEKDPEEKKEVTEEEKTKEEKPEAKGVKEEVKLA

[1] = system: MCF-7 (human breast cancer cells); experiment: MTT cancer cell growth inhibition; format: cell-based; settings: Homo sapiens, MCF7, 72 h
How it was run: (§1)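 GI50 values come from viability measured by MTT reduction at 570 nm. Plated overnight at 1500 cells per well, cultures received drug in three parallel wells across 10^−5–10^−10 M final and were incubated 72 h at 37° C. under 5% CO2 before MTT for 4 h.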

[2] = system: DU145 (human prostate cancer cells); experiment: MTT cancer cell growth inhibition; format: cell-based; settings: Homo sapiens, DU-145, 72 h, MTT
How it was run: as §1

[3] = system: PANC-1 (Pac-1, human pancreatic cancer cells); experiment: MTT cancer cell growth inhibition; format: cell-based; settings: Homo sapiens, PANC-1, 72 h, MTT
How it was run: as §1

[4] = system: lncap (prostate cancer cells); experiment: MTT cancer cell growth inhibition; format: cell-based; settings: Homo sapiens, LNCaP, 72 h, MTT
How it was run: as §1

[5] = system: Bel-7402 (human hepatoma cells); experiment: MTT cancer cell growth inhibition; format: cell-based; settings: Homo sapiens, Bel-7402, 72 h, MTT, 72 hours incubation, Bel-7402 cells; read-out: GI50 Bel-7402
How it was run: as §1

[6] = system: Huh-7 (human hepatoma cells); experiment: MTT cancer cell growth inhibition; format: cell-based; settings: Homo sapiens, Huh-7, 72 h, MTT, 72 hours incubation, Huh-7 cells; read-out: GI50 Huh-7
How it was run: as §1

[7] = system: U937 (human leukemia cells); experiment: MTT cancer cell growth inhibition; format: cell-based; settings: Homo sapiens, U-937, 72 h, MTT
How it was run: as §1

[8] = system: A549 (human lung cancer cells); experiment: MTT cancer cell growth inhibition; format: cell-based; settings: Homo sapiens, A549, 72 h, MTT
How it was run: as §1

[9] = system: BGC-823 (human gastric cancer cells); experiment: MTT cancer cell growth inhibition; format: cell-based; settings: Homo sapiens, BGC-823, 72 h, MTT
How it was run: as §1

[10] = system: MOLT-4 (human acute lymphoblastic leukemia cells); experiment: MTT cancer cell growth inhibition; format: cell-based; settings: Homo sapiens, MOLT-4, 72 h, MTT
How it was run: as §1

[11] = read-out: IC50 HDAC3, HDAC3, 37° C. 30 minutes
[12] = HDAC1, 37° C. 30 minutes, read-out: IC50 HDAC1
[13] = Table 2, read-out: IC50 HDAC1, a (compounds of the present invention)
[14] = 72 hours, present invention, read-out: GI50 MCF7, a
[15] = MCF-7 cells, 72 hours incubation, read-out: GI50 MCF
[16] = 72 hours, present invention, read-out: GI50 Du145, a
[17] = 72 hours, present invention, read-out: GI50 PANC-1, a
[18] = PANC-1 cells, 72 hours incubation, read-out: GI50 PAN
[19] = 72 hours, present invention, read-out: GI50 lncap, a
[20] = lncap cells, 72 hours incubation, read-out: GI50 lnca
[21] = 72 hours, present invention, read-out: GI50 U937, a
[22] = A549 cells, 72 hours incubation, read-out: GI50 A54
[23] = 72 hours, present invention, read-out: GI50 A549, a
[24] = BGC-823 cells, 72 hours incubation, read-out: GI50 BG
[25] = 72 hours, present invention, read-out: GI50 BGC823, a
[26] = 72 hours, present invention, read-out: GI50 Molt-4, a
[27] = 72 hours incubation, read-out: GI50 MCF
[28] = 72 hours incubation, read-out: GI50 Du1
[29] = 72 hours incubation, read-out: GI50 PAN
[30] = 72 hours incubation, read-out: GI50 lnca
[31] = 72 hours incubation, read-out: GI50 U93
[32] = 72 hours incubation, read-out: GI50 A54
[33] = 72 hours incubation, read-out: GI50 BG
[34] = 72 hours incubation, read-out: GI50 Mol
[35] = DU145 cells, 72 hours incubation, read-out: GI50 Du1
[36] = U937 cells, 72 hours incubation, read-out: GI50 U93
[37] = MOLT-4 cells, 72 hours incubation, read-out: GI50 Mol

Row | SMILES | IC50 (HDAC8) [nM] | IC50 (HDAC3; [11]) [nM] | IC50 (HDAC1; [12]) [nM] | IC50 (HDAC1; [13]) [nM] | GI50 [1, 15] [nM] | GI50 [3, 18] [nM] | GI50 [4, 20] [nM] | GI50 [5] [nM] | GI50 [6] [nM] | GI50 [8, 22] [nM] | GI50 [9, 24] [nM] | IC50 (HDAC3) [nM] | GI50 [1, 27] [nM] | GI50 [2, 28] [nM] | GI50 [3, 29] [nM] | GI50 [4, 30] [nM] | GI50 [7, 31] [nM] | GI50 [8, 32] [nM] | GI50 [9, 33] [nM] | GI50 [10, 34] [nM] | also measured
1 | C/C=C1\NC(=O)c2cccc(n2)CNC(=O)C[C@@H](/C=C/CCSC(=O)CCCCCCC)OC(=O)[C@H](Cc2cccc3ccccc23)NC1=O [Compound 239] | 89 | 47 | 77 | < 100 | 10 | 130 | 10 | 28 | 51 | 10 | 20 | – | – | – | – | – | – | – | – | – | GI50 [1, 14]: 19 nM; GI50 [2, 16]: 1 nM; GI50 [3, 17]: 130 nM; GI50 [4, 19]: 17 nM; GI50 [7, 21]: 3 nM; GI50 [8, 23]: 12 nM; GI50 [9, 25]: 22 nM; GI50 [10, 26]: 4 nM
2 | C/C=C1\NC(=O)c2cccc(n2)CNC(=O)C[C@@H](/C=C/CCS)OC(=O)[C@@H](C)NC1=O [Compound 145] | 29 | – | 51 | – | – | – | – | 18 | 58 | – | – | 26 | 60 | 60 | 60 | 40 | 70 | 70 | 60 | 100 | –
3 | C/C=C1\NC(=O)c2cccc(n2)CNC(=O)C[C@@H](/C=C/CCSC(=O)CCCCCCC)OC(=O)[C@H](Cc2ccccc2)NC1=O [Compound 14] | 57 | 43 | 94 | < 100 | – | – | – | 84 | 92 | – | – | – | 400 | 10 | 530 | 200 | 30 | 100 | 200 | 20 | IC50 (HDAC1; Table 3, read-out: IC50 HDAC1, D (non-substituent)): 94 nM; GI50 [1, 14]: 400 nM; GI50 [2, 16]: 12 nM; GI50 [3, 17]: 530 nM; GI50 [4, 19]: 200 nM; GI50 [7, 21]: 3 nM; GI50 [8, 23]: 100 nM; GI50 [9, 25]: 200 nM; GI50 [10, 26]: 20 nM
4 | C/C=C1\NC(=O)c2nc(ccc2F)CNC(=O)C[C@@H](/C=C/CCSC(=O)CCCCC)OC(=O)[C@H](C(C)C)NC1=O [Compound 36] | 35 | 37 | 11 | – | – | – | – | 62 | 43 | – | – | – | 50 | 20 | 60 | 40 | 20 | 40 | 30 | 40 | IC50 (HDAC1; Table 3, column C, read-out: IC50 HDAC1, C (six-membered ring with substituents)): 11 nM
5 | C/C=C1\NC(=O)c2ccc(SC)c(n2)CNC(=O)C[C@@H](/C=C/CCSC(C)=O)OC(=O)[C@H](CC)NC1=O [Compound 179] | 42 | – | 73 | – | 60 | 60 | 100 | 65 | 15 | 60 | 30 | 34 | – | – | – | – | – | – | – | – | GI50 [2, 35]: 30 nM; GI50 [7, 36]: 50 nM; GI50 [10, 37]: 80 nM
6 | C/C=C1\NC(=O)c2cc(SC)cc(n2)CNC(=O)C[C@@H](/C=C/CCSC(C)=O)OC(=O)[C@H](CCCCN)NC1=O [Compound 193] | 49 | – | 43 | – | 70 | 80 | 80 | 35 | 33 | 40 | 30 | 39 | – | – | – | – | – | – | – | – | GI50 [2, 35]: 30 nM; GI50 [7, 36]: 50 nM; GI50 [10, 37]: 40 nM
